According to patent publication US20250145594A1, “MODULATORS OF THE INTEGRATED STRESS PATHWAY” (Calico Life Sciences LLC, priority 2020, published 2025):
pEC50: −log10 of the molar value.

System: ATF4 luciferase reporter in HEK293T cells
Test: ATF4-Luc assay (in vitro model of VWMD)
Assay type: cell-based, human
Conditions: HEK293T cells carrying the ATF4 luciferase reporter, 1 μg/mL tunicamycin, 7 hours, One Glo luminescence
Procedure, shortened: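 Tunicamycin (1 μg/mL) stress with co-added compound for 7 hours in HEK293T cells stably carrying an ATF4 5′-UTR–luciferase reporter. EC50 values come from the luminescent signal (One Glo).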

| Compound | pEC50 |
| --- | --- |
| O=C(COc1ccc(Cl)c(F)c1)NC12CC(c3ccnc(OCCCOC(F)(F)F)c3)(C1)C2 [Compound 602, 2-(4-chloro-3-fluorophenoxy)-N-(3-{2-[3-(trifluoromethoxy)propoxy]pyridin-4-yl}bicyclo[1.1.1]pentan-1-yl)acetamide] | > 8.00 |
| O=C(COc1ccc(Cl)c(F)c1)NC12CC(n3cc(OCCCOC(F)(F)F)cn3)(C1)C2 [Compound 607, 2-(4-chloro-3-fluorophenoxy)-N-(3-{4-[3-(trifluoromethoxy)propoxy]-1H-pyrazol-1-yl}bicyclo[1.1.1]pentan-1-yl)acetamide] | > 8.00 |

Same assay, conditions: Homo sapiens, HEK-293T, 7 h, HEK293T cells carrying the ATF4 luciferase reporter, 1 μg/mL tunicamycin, One Glo luminescence

| Compound | pEC50 |
| --- | --- |
| O=C(NC12CC(n3cc(C(=O)N4CC[C@H](OC(F)(F)F)C4)cn3)(C1)C2)[C@H]1C[C@H](O)c2cc(Cl)ccc2O1 [Compound 585, (2R,4S)-6-chloro-4-hydroxy-N-(3-{4-[(3S)-3-(trifluoromethoxy)pyrrolidine-1-carbonyl]-1H-pyrazol-1-yl}bicyclo[1.1.1]pentan-1-yl)-3,4-dihydro-2H-1-benzopyran-2-carboxamide] | > 8.00 |
| O=C(NC12CC(n3cc(O[C@H]4C[C@H](OC(F)(F)F)C4)cn3)(C1)C2)[C@H]1C[C@@H](O)c2cc(Cl)ccc2O1 [Compound 587, (2R,4R)-6-chloro-4-hydroxy-N-[3-(4-{[(1r,3R)-3-(trifluoromethoxy)cyclobutyl]oxy}-1H-pyrazol-1-yl)bicyclo[1.1.1]pentan-1-yl]-3,4-dihydro-2H-1-benzopyran-2-carboxamide] | > 8.00 |
| O=C(NC12CC(n3cc(O[C@H]4C[C@H](COC(F)(F)F)C4)cn3)(C1)C2)[C@H]1C[C@@H](O)c2cc(Cl)ccc2O1 [Compound 588, (2R,4R)-6-chloro-4-hydroxy-N-{3-[4-(((1r,3R)-3-[(trifluoromethoxy)methyl]cyclobutyl}oxy)-1H-pyrazol-1-yl]bicyclo[1.1.1]pentan-1-yl)-3,4-dihydro-2H-1-benzopyran-2-carboxamide] | 7.30 to 8.00 |
| O=C(NC12CC(n3cc(O[C@H]4C[C@@H](COC(F)(F)F)C4)cn3)(C1)C2)[C@H]1C[C@@H](O)c2cc(Cl)ccc2O1 [Compound 589, (2R,4R)-6-chloro-4-hydroxy-N-{3-[4-({(1s,3S)-3-[(trifluoromethoxy)methyl]cyclobutyl}oxy)-1H-pyrazol-1-yl]bicyclo[1.1.1]pentan-1-yl}-3,4-dihydro-2H-1-benzopyran-2-carboxamide] | 7.30 to 8.00 |
| O=C(NC12CCC(n3cc(OCCOC(F)(F)F)cn3)(C1)C2)[C@H]1C[C@@H](O)c2cc(Cl)c(F)cc2O1 [Compound 590, (2R,4R)-6-chloro-7-fluoro-4-hydroxy-N-(4-{4-[2-(trifluoromethoxy)ethoxy]-1H-pyrazol-1-yl}bicyclo[2.1.1]hexan-1-yl)-3,4-dihydro-2H-1-benzopyran-2-carboxamide] | 7.30 to 8.00 |
| O=C(NC12CC(n3cc(-c4ccc(C(F)(F)F)cn4)cn3)(C1)C2)C1CNc2cc(C(F)(F)F)c(F)cc2O1 (stereo not drawn) [Compound 591, 7-fluoro-6-(trifluoromethyl)-N-(3-{4-[5-(trifluoromethyl)pyridin-2-yl]-1H-pyrazol-1-yl}bicyclo[1.1.1]pentan-1-yl)-3,4-dihydro-2H-1,4-benzoxazine-2-carboxamide] | 7.30 to 8.00 |
| O=C(NC12CC(n3cc(OCCOC(F)(F)F)cn3)(C1)C2)C1CNc2cc(C(F)(F)F)c(F)cc2O1 (stereo not drawn) [Compound 592, 7-fluoro-N-(3-{4-[2-(trifluoromethoxy)ethoxy]-1H-pyrazol-1-yl}bicyclo[1.1.1]pentan-1-yl)-6-(trifluoromethyl)-3,4-dihydro-2H-1,4-benzoxazine-2-carboxamide] | 7.30 to 8.00 |
| O=C(NC12CC(c3ccnc(OCCOC(F)(F)F)n3)(C1)C2)[C@H]1C[C@@H](O)c2cc(C(F)(F)F)c(F)cc2O1 [Compound 593, (2R,4R)-7-fluoro-4-hydroxy-N-(3-{2-[2-(trifluoromethoxy)ethoxy]pyrimidin-4-yl}bicyclo[1.1.1]pentan-1-yl)-6-(trifluoromethyl)-3,4-dihydro-2H-1-benzopyran-2-carboxamide] | 7.30 to 8.00 |
| O=C(NC12CCC(n3cc(OCCOC(F)(F)F)cn3)(C1)C2)[C@H]1C[C@@H](O)c2cc(Cl)ccc2O1 [Compound 594, (2R,4R)-6-chloro-4-hydroxy-N-(4-{4-[2-(trifluoromethoxy)ethoxy]-1H-pyrazol-1-yl}bicyclo[2.1.1]hexan-1-yl)-3,4-dihydro-2H-1-benzopyran-2-carboxamide] | 6.60 to 7.30 |
| O=C(COc1ccc(Cl)c(F)c1)NC12CCC(n3cc(OCCOC(F)(F)F)cn3)(C1)C2 [Compound 595, 2-(4-chloro-3-fluorophenoxy)-N-(4-{4-[2-(trifluoromethoxy)ethoxy]-1H-pyrazol-1-yl}bicyclo[2.1.1]hexan-1-yl)acetamide] | 6.30 to 6.60 |
| COc1ccc2nn([C@H]3CC[C@H](NC(=O)COc4ccc(Cl)c(Cl)c4)CC3)cc2n1 [Compound 596, 2-(3,4-dichlorophenoxy)-N-[(1r,4r)-4-(5-methoxy-2H-pyrazolo[4,3-b]pyridin-2-yl)cyclohexyl]acetamide] | > 8.00 |
| COc1ccc2nn(C34CCC(NC(=O)COc5ccc(Cl)c(F)c5)(CC3)[C@@H](O)C4)cc2c1 [Compound 597, 2-(4-chloro-3-fluorophenoxy)-N-[(2S)-2-hydroxy-4-(5-methoxy-2H-indazol-2-yl)bicyclo[2.2.2]octan-1-yl]acetamide] | 7.30 to 8.00 |
| O=C(COc1ccc(Cl)c(F)c1)N[C@H]1CC[C@H](n2cc(-c3ccc(C(F)(F)F)cn3)cn2)CC1 [Compound 598, 2-(4-chloro-3-fluorophenoxy)-N-[(1r,4r)-4-(4-[5-(trifluoromethyl)pyridin-2-yl]-1H-pyrazol-1-yl)cyclohexyl]acetamide] | > 8.00 |
| O=C(COc1ccc(Cl)c(F)c1)NC12CC(n3cc(C(=O)N4CC[C@H](OC(F)(F)F)C4)nn3)(C1)C2 [Compound 599, 2-(4-chloro-3-fluorophenoxy)-N-(3-{4-[(3S)-3-(trifluoromethoxy)pyrrolidine-1-carbonyl]-1H-1,2,3-triazol-1-yl}bicyclo[1.1.1]pentan-1-yl)acetamide] | > 8.00 |
| O=C(COc1ccc(Cl)c(F)c1)NC12CC(c3ccc(C(=O)N4CC(COC(F)(F)F)C4)nc3)(C1)C2 [Compound 600, 2-(4-chloro-3-fluorophenoxy)-N-[3-(6-{3-[(trifluoromethoxy)methyl]azetidine-1-carbonyl}pyridin-3-yl)bicyclo[1.1.1]pentan-1-yl]acetamide] | > 8.00 |
| O=C(COc1ccc(Cl)c(F)c1)NC12CC(c3ccc(C(=O)N4CC(OCC(F)(F)F)C4)nc3)(C1)C2 [Compound 601, 2-(4-chloro-3-fluorophenoxy)-N-(3-{6-[3-(2,2,2-trifluoroethoxy)azetidine-1-carbonyl]pyridin-3-yl}bicyclo[1.1.1]pentan-1-yl)acetamide] | 7.30 to 8.00 |
| O=C(COc1ccc(Cl)c(F)c1)NC12CC(c3ccc(C(=O)N4CC[C@H](OC(F)(F)F)C4)nc3)(C1)C2 [Compound 603, 2-(4-chloro-3-fluorophenoxy)-N-(3-{6-[(3S)-3-(trifluoromethoxy)pyrrolidine-1-carbonyl]pyridin-3-yl}bicyclo[1.1.1]pentan-1-yl)acetamide] | > 8.00 |
| O=C(COc1ccc(C(F)(F)F)cc1)NC12CC(n3cc(C(=O)N4CC[C@H](OC(F)(F)F)C4)cn3)(C1)C2 [Compound 604, N-(3-{4-[(3S)-3-(trifluoromethoxy)pyrrolidine-1-carbonyl]-1H-pyrazol-1-yl}bicyclo[1.1.1]pentan-1-yl)-2-[4-(trifluoromethyl)phenoxy]acetamide] | > 8.00 |
| O=C(COc1ccc(Cl)c(F)c1)NC12CC(c3ccc(C(=O)N4CC(OC(F)(F)F)C4)nc3)(C1)C2 [Compound 605, 2-(4-chloro-3-fluorophenoxy)-N-(3-{6-[3-(trifluoromethoxy)azetidine-1-carbonyl]pyridin-3-yl}bicyclo[1.1.1]pentan-1-yl)acetamide] | > 8.00 |
| O=C(COc1ccc(Cl)c(Cl)c1)NC12CC(n3cc(C(=O)N4CC[C@H](OC(F)(F)F)C4)cn3)(C1)C2 [Compound 606, 2-(3,4-dichlorophenoxy)-N-(3-{4-[(3S)-3-(trifluoromethoxy)pyrrolidine-1-carbonyl]-1H-pyrazol-1-yl}bicyclo[1.1.1]pentan-1-yl)acetamide] | > 8.00 |
| O=C(COc1ccc(Cl)c(F)c1)NC12CC(n3cc(C4CCN(CC(F)(F)F)CC4)cn3)(C1)C2 [Compound 608, 2-(4-chloro-3-fluorophenoxy)-N-(3-{4-[1-(2,2,2-trifluoroethyl)piperidin-4-yl]-1H-pyrazol-1-yl}bicyclo[1.1.1]pentan-1-yl)acetamide] | 7.30 to 8.00 |
| O=C(COc1ccc(Cl)c(F)c1)N[C@H]1CC[C@H](n2cc(C(=O)N3CC[C@H](OC(F)(F)F)C3)cn2)CC1 [Compound 609, 2-(4-chloro-3-fluorophenoxy)-N-[(1S,4r)-4-{4-[(3S)-3-(trifluoromethoxy)pyrrolidine-1-carbonyl]-1H-pyrazol-1-yl}cyclohexyl]acetamide] | > 8.00 |
| O=C(COc1ccc(Cl)c(F)c1)NC12CC(n3cc(OC[C@H]4C[C@@H](OC(F)(F)F)C4)cn3)(C1)C2 [Compound 612, 2-(4-chloro-3-fluorophenoxy)-N-[3-(4-{[(1s,3s)-3-(trifluoromethoxy)cyclobutyl]methoxy}-1H-pyrazol-1-yl)bicyclo[1.1.1]pentan-1-yl]acetamide] | > 8.00 |
| O=C(COc1ccc(Cl)c(F)c1)NC12CC(n3cc(CCCOC(F)(F)F)cn3)(C1)C2 [Compound 613, 2-(4-chloro-3-fluorophenoxy)-N-(3-{4-[3-(trifluoromethoxy)propyl]-1H-pyrazol-1-yl}bicyclo[1.1.1]pentan-1-yl)acetamide] | 7.30 to 8.00 |
| O=C(COc1ccc(C(F)(F)F)c(F)c1)N[C@H]1CC[C@H](n2cc(C(=O)N3CC[C@H](OC(F)(F)F)C3)cn2)CC1 [Compound 614, 2-[3-fluoro-4-(trifluoromethyl)phenoxy]-N-[(1S,4r)-4-{4-[(3S)-3-(trifluoromethoxy)pyrrolidine-1-carbonyl]-1H-pyrazol-1-yl}cyclohexyl]acetamide] | > 8.00 |
